# Earlier results, collected in patent US11053214B2, “Compositions and methods related to pyridinoylpiperidine 5-HT1F agonists” (COLUCID PHARMACEUTICALS, INC., priority 2016, dated 2021).
# What was measured:
# [1] = tested on: other 5-HT1 receptor subtypes
# rabbit saphenous vein = conditions: concentrations up to 0.1 mM
# migraine = conditions: early clinical proof-of-concept study
SMILES,affinity higher for 5-HT1F receptors than for other 5-HT1 receptor subtypes [1],constriction of rabbit saphenous vein (rabbit saphenous vein),efficacy in the acute treatment of migraine (migraine)
"CN1CCC(C(=O)c2cccc(NC(=O)c3c(F)cc(F)cc3F)n2)CC1.O=C(O)CCC(=O)O [Compound I, hemisuccinate salt of 2,4,6-trifluoro-N-[6-(1-methyl-piperidine-4-carbonyl)-pyridin-2-yl]-benzamide]",more than 450 fold,did not constrict,
CN1CCC(c2c[nH]c3ccc(NC(=O)c4ccc(F)cc4)cc23)CC1 [LY334370],,,proved effective
